# Data taken from patent publication US20150148304A1, “Novel Peptides and Analogs for Use in the Treatment of Macrophage Activation Syndrome” (Soligenix, Inc., priority 2013, published 2015).
# No end group written: not given here.
# Experiments:
# [1] = system: macrophage activation syndrome model; test: CpG (TLR-9 agonist) induced model of macrophage activation syndrome; format: in vivo, C57BL/6 mice
# Description: Macrophage activation syndrome was simulated in 8-10 week old C57BL/6 mice by repeated administration of the TLR-9 agonist, CpG. CpG (35 μg in 200 μL) or Saline was administered intraperitoneally (IP) on days 0, 2, 4, 7 and 9. SGX94 (200 mg/kg IP) or Saline was administered on days 1, 4 and 7. […] In a repeat study, the same model was used to test administration of saline (Days 1, 4 and 7; control); RIVPA (SEQ ID NO. 5) at 200 mg/kg administered on Days 1, 4 and 7, 400 mg/kg administered on Day 1, 4 and 7 and 400 mg/kg administered on Days 1; 3, 5 and 7. In this experiment CpG (35 μg) was administered on days 0, 2, 4, 7 and 10 and no saline-stimulated controls were used.
# [2] = cardiovascular (CV)/pulmonary safety pharmacology study; format: in vivo, cynomolgus monkey
# Text: In 1 animal, the high dose caused a marked reduction in respiratory rate followed by bradycardia, hypotension and death.
# In summary, the major toxicological finding was an acute-onset respiratory depression, accompanied by labored breathing, recumbency and transient decreased activity.
# [3] = system: battery of CNS receptors and ion channels; test: interaction with a battery of CNS receptors and ion channels in vitro; format: binding
# Description: (§1) No effects of RIVPA (SEQ ID NO. 5) have been observed on the central nervous system (CNS) in any study at any dose level and little or no radiolabelled RIVPA (SEQ ID NO. 5) was found in the mouse CNS at dose levels of either 20 or 90 mg/kg.
# human normal blood cells = test: proliferation of normal blood cells in vitro (human); format: cell-based
# whole blood = test: ex vivo LPS stimulation of whole blood from Phase 1 subjects, cytokine/chemokine Activity Ratios; format: cell-based, human; conditions: dose range 0.15-2 mg/kg; 4 hours in vitro LPS stimulation of whole blood
# Description: In ex vivo investigations using blood samples obtained during the Phase 1 healthy human volunteer study, a number of cytokine and chemokine analytes were quantified after 4 hours of in vitro stimulation of whole blood with LPS. The inter-individual variability in analyte levels was larger than any variation in time or response to RIVPA (SEQ ID NO. 5) or placebo administration and the data were therefore self-normalized using the individual pre-dose analyte level to standardize all responses for each individual subject (the Activity Ratio). RIVPA (SEQ ID NO. 5) effects on the analyte Activity Ratios (ARs) were neither constant throughout time, nor linearly dose responsive.
# [4] = distribution of radiolabelled RIVPA to the mouse CNS; format: in vivo; conditions: dose levels of 20 or 90 mg/kg
# Description: as §1
# [5] = toxicology and PK studies in mice with alternate routes of administration; conditions: mouse, in vivo, other: intraperitoneal or subcutaneous
# [6] = acute toxicity (respiratory depression) dose levels, NHP; format: in vivo, cynomologus monkey
# Description: (§2) The observed respiratory depression occurred at different dose levels in different species, and was not predicted by allometric scaling. In particular, the mouse appeared to be the most sensitive species with acute toxicity occurring rarely at 60 mg/kg (HED: ˜5 mg/kg) and commonly at 90 mg/kg (HED: ˜7 mg/kg). In contrast in NHP (cynomologus monkey), acute toxicity occurred occasionally at 160 mg/kg (HED: ˜50 mg/kg) and consistently at 240 mg/kg (HED: ˜78 mg/kg).
# mouse normal blood cells = test: proliferation of normal blood cells in vitro (mouse); format: cell-based
# [7] = non-GLP pilot toxicology study, single IV administration, mouse; conditions: in vivo, IV injection over 30 to 60 seconds, actual dose, read-out: maximum tolerated dose (MTD) of a single administration
# Description: (§3) Two pilot and 2 definitive repeat-dose toxicity studies were conducted with RIVPA (SEQ ID NO. 5) in mice and cynomolgus monkeys using the intravenous (IV; slow bolus) route of administration.
# These resolved within a few minutes without detectable residual effects.
# [8] = Phase 1 study in healthy volunteers, pharmacokinetics; format: in vivo, human
# Text: Following IV administration in human subjects and consistent with findings in animal studies, RIVPA (SEQ ID NO. 5) is cleared from the circulation within minutes. […] Following the rapid decline, a slower elimination phase was observed. […] Maximum plasma concentrations and total exposure levels were dose-proportional and clearance of RIVPA (SEQ ID NO. 5) from the circulation was rapid, consistent with the mouse and NHP experience.
# In light of the high clearance and short elimination half-life, accumulation following daily injection was not expected to occur.
# [9] = acute toxicity (respiratory depression) dose levels, mouse; format: in vivo
# Description: as §2
# [10] = GLP 14-day repeat-dose IV toxicity study in cynomolgus monkeys; format: in vivo
# Description: as §3
# RIVPA (SEQ ID NO. 5) at 20, 80, 160 mg/kg/day was given IV to cynomolgus monkeys for 14 days. […] In all cases, these clinical signs resolved within a few minutes. […] A dose level of 80 mg/kg/day was considered to be the No-Observed-Adverse-Effect-Level (NOAEL) for this study.
# Overall, the NOAEL is considered to be 80 mg/kg/day for cynomolgus monkeys since transient clinical signs were limited to a single study and occurred in only 2 instances of the 98 administrations of the drug at this dose level.
# In the latter study, no effect on T-cell, B-cell or NK-cell counts was observed after 14 days of intravenous RIVPA (SEQ ID NO. 5) dosing in the NHP. […] Collectively, there is no indication of a potential for RIVPA (SEQ ID NO. 5) to cause immunotoxicity or non-specific immune activation. No hyperactivation or suppression of adaptive immune responses, or other impact on the phenotypes of cells associated with adaptive immunity, has been detected following RIVPA (SEQ ID NO. 5) administration.
# [11] = Day 8, 200 mg/kg IP days 1, 4 and 7, relative to CpG stimulated, saline treated group
# [12] = Day 10, serum, 200 mg/kg IP, first study
# [13] = repeat study, 200 mg/kg Days 1, 4, 7, 400 mg/kg Days 1, 4, 7, 400 mg/kg Days 1, 3, 5, 7
# [14] = single IV doses of 20 or 80 mg/kg
substance,measurement,setting,value
"RIVPA-NH2 [RIVPA, L-arginyl-L-isoleucyl-L-valyl-L-prolyl-L-alanine-amide]",platelet counts,[1]; [11],increased
same,white blood cell counts,[1]; [11],significantly increased
same,body weights,"[1]; Day 10, 200 mg/kg IP, relative to CpG stimulated, saline-treated group",increased
same,IFNγ levels,[1]; [12],not significantly altered
same,IL-10 levels,[1]; [12],not significantly altered
same,IL-12 levels,"[1]; Day 10, serum, 200 mg/kg IP, relative to CpG stimulated, saline-treated group",decreased
same,"changes in saline stimulated, RIVPA treated group","[1]; relative to saline stimulated, saline treated control",no significant changes
same,IFNγ levels,[1]; repeat study,no significant changes
same,platelet count,[1]; [13],statistically significant increase
same,white blood cell count,[1]; [13],statistically significant increase
same,clinical signs at 220 mg/kg,"[2]; 220 mg/kg, death in 1 animal","transient, severe clinical signs"
same,cardiac toxicity or QT prolongation,[2]; nonhuman primates,no cardiac toxicity or QT prolongation
same,clinical signs at 80 mg/kg,"[2]; single IV 80 mg/kg, during dosing",transient drooping eye lids and prostration
same,cardiovascular effects and ECG parameters,[2]; [14],no cardiovascular effects or changes in electrocardiogram (ECG) parameters
same,respiratory effects,[2]; [14],No respiratory effects were observed
same,interaction with CNS receptors and ion channels,[3],No interaction was detected
same,proliferation of human normal blood cells,human normal blood cells,did not promote the proliferation
same,"anti-inflammatory status (higher TNF RII and IL-1ra, lower TNFα and IL-1β)",whole blood,evidence of an increase
same,radiolabelled RIVPA found in the mouse CNS,[4],little or no
same,NOAEL,[5],> 200 mg/kg
same,HED of dose at which acute toxicity occurs occasionally,[6]; NHP 160 mg/kg,~50 mg/kg
same,HED of dose at which acute toxicity occurs consistently,[6]; NHP 240 mg/kg,~78 mg/kg
same,proliferation of mouse normal blood cells,mouse normal blood cells,did not promote the proliferation
same,MTD,[7],88 mg/kg
same,"pre-dose concentrations on Days 5, 6, 7 and Day 8","[8]; daily IV for 7 days, all subjects",below the lower limit of quantitation
same,Tmax,"[8]; human, plasma, intravenous, after start of infusion, dose range 0.15 mg/kg to 8 mg/kg, read-out: mean time of maximum concentration (Tmax)",4 to 4.8 min
same,time after start of infusion for plasma levels to decrease to less than 10 percent of Cmax,"[8]; single-dose phase, 4-minute IV infusion",≤ 9 min
same,maximum plasma concentrations and total exposure levels versus dose,"[8]; single-dose phase, IV",dose-proportional
same,HED of dose at which acute toxicity occurs rarely,[9]; mouse 60 mg/kg,~5 mg/kg
same,HED of dose at which acute toxicity occurs commonly,[9]; mouse 90 mg/kg,~7 mg/kg
same,clinical signs at 160 mg/kg,"[10]; 160 mg/kg/day IV for 14 days, cynomolgus monkeys, during and shortly after dosing",Transient decreased activity and partially closed eyes
same,toxicity at 20 and 80 mg/kg/day,"[10]; 20 and 80 mg/kg/day IV for 14 days, cynomolgus monkeys",did not result in any evidence of toxicity
same,"immune-related organ weights, histopathology, hematology and clinical chemistry",[10]; NHP 14-day toxicity study,no changes were observed
same,"T-cell, B-cell or NK-cell counts",[10]; after 14 days of intravenous dosing in the NHP,no effect
same,NOAEL at 14 days,"[10]; cynomolgus monkey, in vivo, IV for 14 days, cynomolgus monkeys, read-out: No-Observed-Adverse-Effect-Level (NOAEL) for this study",80 mg/kg/day
same,overall NOAEL for cynomolgus monkeys,"[10]; overall across studies, IV",80 mg/kg/day
